Test results as given in ChEMBL document CHEMBL5365432, “Anticancer Activities of DNA-Alkylating Pyrrole-Imidazole Polyamide Analogs Targeting RUNX Transcription Factors against p53-Mutated Pancreatic Cancer PANC-1 Cells” (J Med Chem, 2023).
The source made the active and inactive calls. No cut-off for these calls is given here.

Assays:
DNA [1] = assay: Binding affinity to DNA (unknown origin) assessed as formation of DNA alkylation product at 150 uM incubated for 18 hrs measured after 20 mins by HPLC/MALDI-TOF MS analysis; assay type: nucleic-acid assay; settings: time 18.33 hrs
DNA [2] = assay: Binding affinity to DNA (unknown origin) assessed as DNA alkylation at RUNX-binding site at 150 uM incubated for 18 hrs by HPLC analysis; assay type: nucleic-acid assay
PANC-1 [3] = assay: Cytotoxicity against human PANC-1 cells assessed as cell viability at 3 uM incubated for 3 days by colorimetric assay relative to control; assay type: functional; settings: PANC-1, 72 h, time 3 day, read-out: Activity
[4] = Cytotoxicity against human hTERT-HPNE cells assessed as cell viability at 3 uM incubated for 3 days by colorimetric assay relative to control; assay type: toxicity, cell-based; settings: time 3 day, read-out: Activity
PANC-1 [5] = assay: Induction of apoptosis in human PANC-1 cells assessed as viable cells at 3 uM incubated for 72 hrs by Annexin V-FITC/PI staining based flow cytometry (reference value: 94.3 %); assay type: functional; settings: read-out: Activity
PANC-1 [6] = assay: Induction of apoptosis in human PANC-1 cells assessed as early apoptotic cells at 3 uM incubated for 72 hrs by Annexin V-FITC/PI staining based flow cytometry (reference value: 1.5 %); assay type: functional
PANC-1 [7] = assay: Induction of apoptosis in human PANC-1 cells assessed as late apoptotic cells at 3 uM incubated for 72 hrs by Annexin V-FITC/PI staining based flow cytometry (reference value: 2.9 %); assay type: functional
PANC-1 [8] = assay: Induction of apoptosis in human PANC-1 cells assessed as necrotic cells at 3 uM incubated for 72 hrs by Annexin V-FITC/PI staining based flow cytometry (reference value: 1.2 %); assay type: functional
PANC-1 [9] = assay: Induction of apoptosis in human PANC-1 cells assessed as suppression of BCL11A mRNA level at 3 uM incubated for 48 hrs by RT-qPCR analysis; assay type: functional, cell-based
PANC-1 [10] = assay: Induction of apoptosis in human PANC-1 cells assessed as increase in phosphorylated p53 protein level at S15 residue at 3 uM incubated for 72 hrs by proteomic profiling array; assay type: functional, cell-based
PANC-1 [11] = assay: Induction of apoptosis in human PANC-1 cells assessed as increase in phosphorylated p53 protein level at S46 residue at 3 uM incubated for 72 hrs by proteomic profiling array; assay type: functional, cell-based
PANC-1 [12] = assay: Induction of apoptosis in human PANC-1 cells assessed as increase in phosphorylated p53 protein level at S392 residue at 3 uM incubated for 72 hrs by proteomic profiling array; assay type: functional, cell-based
PANC-1 [13] = assay: Induction of apoptosis in human PANC-1 cells assessed as upregulation of TAp73 mRNA level at 3 uM incubated for 48 hrs by RT-qPCR analysis; assay type: functional, cell-based
PANC-1 [14] = assay: Induction of apoptosis in human PANC-1 cells assessed as upregulation of TAp63 mRNA level at 3 uM incubated for 48 hrs by RT-qPCR analysis; assay type: functional, cell-based
PANC-1 [15] = assay: Anti-cancer activity against human PANC-1 cells xenografted in CB17.Cg-PrkdcscidLystbg-j/CrlCrlj mouse assessed as reduction in tumor volume at 5 mg/kg, iv administered twice a week for 3 weeks; assay type: functional, organism-based
[16] = Toxicity in CB17.Cg-PrkdcscidLystbg-j/CrlCrlj mouse xenografted with human PANC-1 cells assessed as body weight loss at 5 mg/kg, iv administered twice a week for 3 weeks; assay type: organism-based; settings: in vivo, 504 h
PANC-1 [17] = assay: Anti-cancer activity against human PANC-1 cells xenografted in CB17.Cg-PrkdcscidLystbg-j/CrlCrlj mouse assessed as fold change in tumor volume at 1 mg/kg, iv administered twice a week for 3 weeks relative to gemcitabine; assay type: functional

Compound | Activity (DNA [1]) | Activity (DNA [2]) | viability at 3 µM (PANC-1 [3]) | viability at 72 h, 3 µM [4] | viability at 3 µM (PANC-1 [5]) | Activity (PANC-1 [6]) | Activity (PANC-1 [7]) | Activity (PANC-1 [8]) | Activity (PANC-1 [9]) | Activity (PANC-1 [10]) | Activity (PANC-1 [11]) | Activity (PANC-1 [12]) | Activity (PANC-1 [13]) | Activity (PANC-1 [14]) | Activity (PANC-1 [15]) | Activity [16] | fold change (FC) (PANC-1 [17])
CN(C)CCCNC(=O)c1nc(NC(=O)c2nc(NC(=O)c3cc(NC(=O)c4nc(NC(=O)CCCNC(=O)c5cc(NC(=O)c6cc(NC(=O)c7cc(NC(=O)c8cc(NC(=O)CCNC(=O)CCCc9ccc(N(CCCl)CCCl)cc9)cn8C)cn7C)cn6C)cn5C)cn4C)cn3C)cn2C)cn1C | Active | Active | 85% | 82% | 78.5% | 10.8% | 9.1% | 1.6% | Active | Active | Active | Active | Active | Active | Active | Non-Toxic | 50
CN(C)CCCNC(=O)c1cc(NC(=O)c2cc(NC(=O)c3cc(NC(=O)c4cc(NC(=O)CCCNC(=O)c5nc(NC(=O)c6cc(NC(=O)c7nc(NC(=O)c8nc(NC(=O)CCNC(=O)CCCc9ccc(N(CCCl)CCCl)cc9)cn8C)cn7C)cn6C)cn5C)cn4C)cn3C)cn2C)cn1C | Active | Active | 67.7% | 73.8% | 68.7% | 15% | 14% | 2.4% | Active | Active | Active | Active | Active | inactive | Active | Non-Toxic | 50
CN(C)CCCNC(=O)c1nc(NC(=O)c2cc(NC(=O)c3nc(NC(=O)c4nc(NC(=O)CCCNC(=O)c5cc(NC(=O)c6cc(NC(=O)c7cc(NC(=O)c8cc(NC(=O)CCNC(=O)CCCc9ccc(N(CCCl)CCCl)cc9)cn8C)cn7C)cn6C)cn5C)cn4C)cn3C)cn2C)cn1C | Active | inactive | – | – | – | – | – | – | – | – | – | – | – | – | – | – | –
CN(C)CCCNC(=O)c1cc(NC(=O)c2cc(NC(=O)c3cc(NC(=O)c4cc(NC(=O)CCCNC(=O)c5nc(NC(=O)c6nc(NC(=O)c7cc(NC(=O)c8nc(NC(=O)CCNC(=O)CCCc9ccc(N(CCCl)CCCl)cc9)cn8C)cn7C)cn6C)cn5C)cn4C)cn3C)cn2C)cn1C | Active | inactive | 74.7% | 79.5% | 73.1% | 12.5% | 12.4% | 1.9% | Active | Active | Active | Active | Active | inactive | Active | Non-Toxic | –
